Data: patent US20130096119A1, “Isoquinolin-3-Ylurea Derivatives” (priority 2010, published 2013)
In brackets after ≈: the same amount, converted by molar mass.

Tested on: S. pneumoniae ATCC 49619
Experiment: Minimal inhibitory concentration (MIC) by microdilution method (CLSI M7-A7)
Format: cell-based, Streptococcus pneumoniae
Conditions: Streptococcus pneumoniae, ATCC49619, cation-adjusted Mueller-Hinton Broth supplemented with 3% (v/v) lysed horse blood
Procedure: Minimal inhibitory concentrations (MICs; mg/l) were determined in cation-adjusted Mueller-Hinton Broth (supplemented with 3% (v/v) lysed horse blood for testing Streptococcus pneumoniae) by a microdilution method following the description given in “Methods for Dilution Antimicrobial Susceptibility Tests for Bacteria that Grow Aerobically”, Approved standard, 7th ed., Clinical and Laboratory Standards Institute (CLSI) Document M7-A7, Wayne, Pa., USA, 2006.

Row | MIC [µg/mL] | Compound
1 | 2 | CCNC(=O)Nc1cc2cccc(Nc3cccc(C)n3)c2cn1.Cl [Example 155, 1-ethyl-3-[8-(6-methyl-pyridin-2-ylamino)-isoquinolin-3-yl]-urea hydrochloride]
2 | 8 (≈ 19.6 µM) | CCNC(=O)Nc1cc2cc(NCc3ccc(OCC(N)=O)cc3)cc(C)c2cn1 [Example 186, 2-(4-{[3-(3-ethyl-ureido)-8-methyl-isoquinolin-6-ylamino]-methyl}-phenoxy)-acetamide]
3 | 8 (≈ 24.4 µM) | CCNC(=O)Nc1cc2c(-c3ccncn3)ccc(Cl)c2cn1 [Example 286, 1-(8-chloro-5-pyrimidin-4-yl-isoquinolin-3-yl)-3-ethyl-urea]
4 | 4 (≈ 11.9 µM) | CCNC(=O)Nc1cc2cccc(-c3ccc(C(=O)O)cc3)c2cn1 [Example 123, 4-[3-(3-ethyl-ureido)-isoquinolin-8-yl]-benzoic acid]
5 | 1 | CCNC(=O)Nc1cc2cccc(Nc3cccc(C(=O)NC)c3)c2cn1.Cl [Example 200, 3-[3-(3-ethyl-ureido)-isoquinolin-8-ylamino]-N-methyl-benzamide hydrochloride]
6 | 0.5 (≈ 1.33 µM) | CCNC(=O)Nc1cc2cc(-c3ccc(CNC(C)=O)cc3)cc(C)c2cn1 [Example 81, N-{4-[3-(3-ethyl-ureido)-8-methyl-isoquinolin-6-yl]-benzyl}-acetamide]
7 | 1 (≈ 2.98 µM) | CCNC(=O)Nc1cc2cc(-c3cccc(CO)c3)cc(C)c2cn1 [Example 19, 1-ethyl-3-[6-(3-hydroxymethyl-phenyl)-8-methyl-isoquinolin-3-yl]-urea]
8 | 2 (≈ 6.18 µM) | CCNC(=O)Nc1cc2cc(-c3cccc(F)c3)cc(C)c2cn1 [Example 88, 1-ethyl-3-[6-(3-fluoro-phenyl)-8-methyl-isoquinolin-3-yl]-urea]
9 | 4 (≈ 13 µM) | CCNC(=O)Nc1cc2cccc(Oc3cccnc3)c2cn1 [Example 147, 1-ethyl-3-[8-(pyridin-3-yloxy)-isoquinolin-3-yl]-urea]
10 | 1 (≈ 3.26 µM) | CCNC(=O)Nc1cc2cccc(Nc3ccccc3)c2cn1 [Example 169, 1-ethyl-3-(8-phenylamino-isoquinolin-3-yl)-urea]
11 | 0.5 (≈ 1.05 µM) | CCNC(=O)Nc1cc2c(F)c(-c3cccc(NC(C)=O)c3)cc(-c3cnc(OC)nc3)c2cn1 [Example 114, N-{3-[3-(3-ethyl-ureido)-5-fluoro-8-(2-methoxy-pyrimidin-5-yl)-isoquinolin-6-yl]-phenyl}-acetamide]
12 | 16 (≈ 51.6 µM) | CCNC(=O)Nc1cc2c(F)ccc(-c3cccnc3)c2cn1 [Example 215, 1-ethyl-3-(5-fluoro-8-pyridin-3-yl-isoquinolin-3-yl)-urea]
13 | 16 (≈ 42.4 µM) | CCNC(=O)Nc1cc2cc(-c3ccccc3C(=O)OCC)cc(C)c2cn1 [Example 85, 2-[3-(3-ethyl-ureido)-8-methyl-isoquinolin-6-yl]-benzoic acid ethyl ester]
14 | 2 (≈ 6.17 µM) | CCNC(=O)Nc1cc2cc(-c3cccnc3F)cc(C)c2cn1 [Example 100, 1-ethyl-3-[6-(2-fluoro-pyridin-3-yl)-8-methyl-isoquinolin-3-yl]-urea]
15 | 0.25 (≈ 0.716 µM) | CCNC(=O)Nc1cc2cc(NC(=O)c3cccnc3)cc(C)c2cn1 [Example 119, N-[3-(3-ethyl-ureido)-8-methyl-isoquinolin-6-yl]nicotinamide]
16 | 2 (≈ 6.22 µM) | CCNC(=O)Nc1cc2cc(-c3ccccc3O)cc(C)c2cn1 [Example 109, 1-ethyl-3-[6-(2-hydroxy-phenyl)-8-methyl-isoquinolin-3-yl]-urea]
17 | 1 (≈ 2.85 µM) | CCNC(=O)Nc1cc2cccc(Nc3cccc(C(=O)O)c3)c2cn1 [Example 198, 3-[3-(3-ethyl-ureido)-isoquinolin-8-ylamino]-benzoic acid]
18 | 4 (≈ 13.3 µM) | CCNC(=O)Nc1cc2c(CCC(N)=O)ccc(C)c2cn1 [Example 59, 3-[3-(3-ethyl-ureido)-8-methyl-isoquinolin-5-yl]-propionamide]
19 | 4 (≈ 13 µM) | CCNC(=O)Nc1cc2cccc(Nc3ccncn3)c2cn1 [Example 151, 1-ethyl-3-[8-(pyrimidin-4-ylamino)-isoquinolin-3-yl]-urea]
20 | 4 (≈ 12.3 µM) | CCNC(=O)Nc1cc2c(-c3cccnc3F)ccc(C)c2cn1 [Example 66, 1-ethyl-3-[5-(2-fluoro-pyridin-3-yl)-8-methyl-isoquinolin-3-yl]-urea]
21 | 1 (≈ 2.86 µM) | CCNC(=O)Nc1cc2cc(-c3ccc4c(c3)OCO4)cc(C)c2cn1 [Example 77, 1-(6-(benzo[1,3]dioxol-5-yl)-8-methyl-isoquinolin-3-yl)-3-ethyl-urea]
22 | 4 (≈ 11 µM) | CCNC(=O)Nc1cc2cccc(Nc3ccc(CC(=O)O)cc3)c2cn1 [Example 205, {4-[3-(3-ethyl-ureido)-isoquinolin-8-ylamino]phenyl}-acetic acid]
23 | 2 (≈ 5.5 µM) | CCNC(=O)Nc1cc2cccc(Nc3ccc(NC(C)=O)cc3)c2cn1 [Example 173, N-{4-[3-(3-ethyl-ureido)-isoquinolin-8-ylamino]-phenyl}-acetamide]

Row | MIC [µg/mL] | Compound
24 | 4 (≈ 12.9 µM) | CCNC(=O)Nc1cc2cccc(Cn3cc(C)cn3)c2cn1 [Example 300, 1-ethyl-3-[8-(4-methyl-pyrazol-1-ylmethyl)-isoquinolin-3-yl]-urea]
25 | 4 | CCNC(=O)Nc1cc2cccc(CNc3cc(C)on3)c2cn1.Cl [Example 301, 1-ethyl-3-{8-[(5-methyl-isoxazol-3-ylamino)-methyl]-isoquinolin-3-yl}-urea hydrochloride]
26 | 0.25 (≈ 0.586 µM) | CCNC(=O)Nc1cc2cc(NC(=O)c3ccc(S(C)(=O)=O)cc3)cc(C)c2cn1 [Example 117, N-[3-(3-ethyl-ureido)-8-methyl-isoquinolin-6-yl]-4-methanesulfonyl-benzamide]
27 | 2 (≈ 6.17 µM) | CCNC(=O)Nc1cc2c(-c3ccnc(F)c3)ccc(C)c2cn1 [Example 41, 1-ethyl-3-[5-(2-fluoro-pyridin-4-yl)-8-methyl-isoquinolin-3-yl]-urea]
28 | 1 | CCNC(=O)Nc1cc2cccc(Nc3cccc(C(=O)N(C)C)c3)c2cn1.Cl [Example 199, 3-[3-(3-ethyl-ureido)-isoquinolin-8-ylamino]-N,N-dimethyl-benzamide hydrochloride]
29 | 4 (≈ 11.4 µM) | CCNC(=O)Nc1cc2c(CNC)ccc(Nc3cccnc3)c2cn1 [Example 270, 1-ethyl-3-{5-[(methylamino)methyl]-8-(pyridin-3-ylamino)-isoquinolin-3-yl}-urea]
30 | 8 | CCNC(=O)Nc1cc2cccc(COc3cccc(N)c3)c2cn1.Cl [Example 260, 1-[8-(3-amino-phenoxymethyl)-isoquinolin-3-yl]-3-ethyl-urea hydrochloride]
31 | 2 (≈ 6.53 µM) | CCNC(=O)Nc1cc2cc(-c3cccnc3)cc(C)c2cn1 [Example 16, 1-ethyl-3-(8-methyl-6-pyridin-3-yl-isoquinolin-3-yl)-urea]
32 | 0.5 (≈ 1.45 µM) | CCNC(=O)Nc1cc2cc(-c3ccc4nccn4c3)cc(C)c2cn1 [Example 25, 1-ethyl-3-(6-imidazo[1,2-a]pyridin-6-yl-8-methyl-isoquinolin-3-yl)-urea]
33 | 2 (≈ 6.49 µM) | CCNC(=O)Nc1cc2cccc(Nc3cnccn3)c2cn1 [Example 148, 1-ethyl-3-[8-(pyrazin-2-ylamino)-isoquinolin-3-yl]-urea]
34 | 8 (≈ 25 µM) | CCNC(=O)Nc1cc2cc(-c3ccccc3C)cc(C)c2cn1 [Example 105, 1-ethyl-3-(8-methyl-6-o-tolyl-isoquinolin-3-yl)-urea]
35 | 0.5 (≈ 1.21 µM) | CCNC(=O)Nc1cc2c(-c3ccnc(C)c3)ccc(Nc3ccc(C)nc3)c2cn1 [Example 245, 1-ethyl-3-[5-(2-methyl-pyridin-4-yl)-8-(6-methyl-pyridin-3-ylamino)-isoquinolin-3-yl]urea]
36 | 4 | CCNC(=O)Nc1cc2cccc(CNc3ccnn3C)c2cn1.Cl [Example 303, 1-ethyl-3-{8-[(2-methyl-2H-pyrazol-3-ylamino)-methyl]-isoquinolin-3-yl}-urea hydrochloride]
37 | 0.5 (≈ 1.08 µM) | CCNC(=O)Nc1cc2c(-c3ccc(S(N)(=O)=O)cc3)ccc(Nc3cccnc3)c2cn1 [Example 230, 4-[3-(3-ethyl-ureido)-8-(pyridin-3-ylamino)-isoquinolin-5-yl]-benzenesulfonamide]
38 | 2 | CCNC(=O)Nc1cc2cccc(Nc3ccc(C(=O)N(C)C)cc3)c2cn1.Cl [Example 203, 4-[3-(3-ethyl-ureido)-isoquinolin-8-ylamino]-N,N-dimethyl-benzamide hydrochloride]
39 | 2 (≈ 6.04 µM) | CCNC(=O)Nc1cc2cccc(Nc3ccc(C#N)cc3)c2cn1 [Example 174, 1-[8-(4-cyano-phenylamino)-isoquinolin-3-yl]-3-ethyl-urea]
40 | 8 (≈ 27.1 µM) | CCNC(=O)Nc1cc2cccc(Cn3cccn3)c2cn1 [Example 295, 1-ethyl-3-(8-pyrazol-1-ylmethyl-isoquinolin-3-yl)-urea]
41 | 0.5 (≈ 1.32 µM) | CCNC(=O)Nc1cc2cccc(Nc3ccc(OC)c(C(N)=O)c3)c2cn1 [Example 242, 5-[3-(3-ethyl-ureido)-isoquinolin-8-ylamino]-2-methoxy-benzamide]
42 | 8 | CCNC(=O)Nc1cc2cc(NCCOCc3ccccc3)cc(C)c2cn1.Cl [Example 132, 1-[6-(2-benzyloxy-ethylamino)-8-methyl-isoquinolin-3-yl]-3-ethyl-urea hydrochloride]
43 | 2 (≈ 6.28 µM) | C=Cc1ccc(-c2ccncc2)c2cc(NC(=O)NCC)ncc12 [Example 140, 1-ethyl-3-[5-(pyridin-4-yl)-8-vinylisoquinolin-3-yl]-urea]
44 | 8 | CCNC(=O)Nc1cc2c(-c3cn(C)cn3)ccc(C)c2cn1.Cl [Example 283, 1-ethyl-3-[8-methyl-5-(1-methyl-1H-imidazol-4-yl)-isoquinolin-3-yl]-urea hydrochloride]
45 | 2 (≈ 5.98 µM) | CCNC(=O)Nc1cc2c(-c3cccc(CN)c3)ccc(C)c2cn1 [Example 11, 1-[5-(3-(aminomethyl)-phenyl)-8-methyl-isoquinolin-3-yl]-3-ethyl-urea]
46 | 1 (≈ 2.25 µM) | CCNC(=O)Nc1cc2c(F)c(-c3cccc(NC(C)=O)c3)cc(-c3cccnc3)c2cn1 [Example 113, N-{3-[3-(3-ethyl-ureido)-5-fluoro-8-pyridin-3-yl-isoquinolin-6-yl]-phenyl}-acetamide]
